In ChEMBL document CHEMBL5725519, “Substituted benzamides and methods of use thereof” (2017):

Legend:
[1] = biological target: Sodium channel protein type 9 subunit alpha (Homo sapiens, UniProt Q15858); experiment: (§1) Control sodium currents were measured in 0.5% DMSO.; assay type: cell-based
[2] = as §1; assay type: cell-based

Sequence of Sodium channel protein type 9 subunit alpha (Q15858 whole entry): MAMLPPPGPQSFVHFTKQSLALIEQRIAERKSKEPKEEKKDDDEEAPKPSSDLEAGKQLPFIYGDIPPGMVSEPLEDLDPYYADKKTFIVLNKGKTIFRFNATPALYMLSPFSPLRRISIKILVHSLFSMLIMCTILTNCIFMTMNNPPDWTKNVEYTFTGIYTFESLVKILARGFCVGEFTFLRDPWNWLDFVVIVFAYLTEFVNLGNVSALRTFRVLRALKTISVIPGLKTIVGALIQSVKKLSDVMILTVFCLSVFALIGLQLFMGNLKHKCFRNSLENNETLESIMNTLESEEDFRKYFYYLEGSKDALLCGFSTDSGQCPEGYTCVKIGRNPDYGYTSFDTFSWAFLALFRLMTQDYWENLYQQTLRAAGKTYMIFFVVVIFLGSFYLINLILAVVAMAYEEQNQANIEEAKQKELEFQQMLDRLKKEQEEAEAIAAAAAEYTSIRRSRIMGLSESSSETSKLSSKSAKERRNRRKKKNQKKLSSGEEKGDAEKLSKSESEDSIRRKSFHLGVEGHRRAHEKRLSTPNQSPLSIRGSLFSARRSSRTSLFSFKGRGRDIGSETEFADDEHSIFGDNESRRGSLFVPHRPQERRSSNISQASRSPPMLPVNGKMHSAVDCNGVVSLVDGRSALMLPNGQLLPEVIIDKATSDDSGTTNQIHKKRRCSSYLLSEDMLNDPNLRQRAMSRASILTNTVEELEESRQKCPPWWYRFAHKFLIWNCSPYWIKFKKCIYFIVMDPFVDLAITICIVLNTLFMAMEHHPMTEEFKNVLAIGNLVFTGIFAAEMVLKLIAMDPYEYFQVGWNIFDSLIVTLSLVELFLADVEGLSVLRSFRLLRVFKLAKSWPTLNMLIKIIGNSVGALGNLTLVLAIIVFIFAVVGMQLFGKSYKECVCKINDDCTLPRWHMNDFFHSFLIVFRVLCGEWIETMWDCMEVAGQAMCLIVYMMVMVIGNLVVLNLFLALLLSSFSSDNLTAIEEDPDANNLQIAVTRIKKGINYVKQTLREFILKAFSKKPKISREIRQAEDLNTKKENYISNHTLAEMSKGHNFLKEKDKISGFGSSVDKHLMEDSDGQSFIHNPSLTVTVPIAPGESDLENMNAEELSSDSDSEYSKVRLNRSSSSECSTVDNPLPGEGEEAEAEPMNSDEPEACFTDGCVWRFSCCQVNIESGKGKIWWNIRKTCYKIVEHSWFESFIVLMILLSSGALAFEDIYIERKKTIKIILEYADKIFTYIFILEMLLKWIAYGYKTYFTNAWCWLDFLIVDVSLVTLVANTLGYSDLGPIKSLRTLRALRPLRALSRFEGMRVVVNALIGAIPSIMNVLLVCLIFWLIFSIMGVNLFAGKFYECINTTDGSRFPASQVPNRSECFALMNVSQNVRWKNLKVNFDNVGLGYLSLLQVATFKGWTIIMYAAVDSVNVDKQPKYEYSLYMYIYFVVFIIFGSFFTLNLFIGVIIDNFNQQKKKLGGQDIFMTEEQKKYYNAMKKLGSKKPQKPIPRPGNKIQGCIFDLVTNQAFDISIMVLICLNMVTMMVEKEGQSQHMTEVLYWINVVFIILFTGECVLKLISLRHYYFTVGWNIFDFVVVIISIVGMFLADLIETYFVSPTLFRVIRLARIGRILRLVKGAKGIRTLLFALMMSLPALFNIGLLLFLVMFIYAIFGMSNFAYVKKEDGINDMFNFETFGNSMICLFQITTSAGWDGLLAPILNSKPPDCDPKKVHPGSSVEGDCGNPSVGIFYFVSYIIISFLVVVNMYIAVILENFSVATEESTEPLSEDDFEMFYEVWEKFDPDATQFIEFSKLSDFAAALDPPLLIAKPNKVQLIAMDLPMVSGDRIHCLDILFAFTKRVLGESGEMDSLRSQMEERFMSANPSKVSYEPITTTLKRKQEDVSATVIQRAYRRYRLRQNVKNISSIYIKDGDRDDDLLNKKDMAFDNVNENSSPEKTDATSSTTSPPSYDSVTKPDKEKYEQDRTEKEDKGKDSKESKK

Row | SMILES | IC50 [1] | IC50 [2]
1 | O=C(NS(=O)(=O)N1CCC1)c1cc(C2CC2)c(OCC2CC3CCC(C2)N3C(c2ccccc2)c2ccccc2)cc1F (configuration not stated) | 5.4 nM | 
2 | CS(=O)(=O)NC(=O)c1cc(C2CC2)c(OCC2CCN(Cc3ccc(Cl)c(C(F)(F)F)c3)CC2)cc1F |  | 169 nM
